According to patent publication US20250313533A1, “QUINOLINE CARBOXYLIC ACID ESTER COMPOUND AND PREPARATION METHOD AND USE THEREOF” (priority 2019, published 2025):

How the values were obtained:
[1] = tested on: pathogenic bacteria causing bacterial angular leaf spot in cucumbers; assay: In vitro bactericidal activity, bacterial angular leaf spot in cucumbers; type: cell-based, pseudomonas; details: read-out: inhibitory rate; for inhibition at 1 ppm: dosage 1 ppm; for inhibition at 5 ppm: dosage 5 ppm
[2] = tested on: pathogenic bacteria causing bacterial wilt in tobacco; assay: whole plant or invertebrate; type: cell-based, ralstonia; details: read-out: inhibitory rate
[3] = tested on: pathogenic bacteria causing black shank in potatoes; assay: In vitro bactericidal activity, black shank in potatoes; type: cell-based; details: read-out: inhibitory rate; for inhibition at 1 ppm: dosage 1 ppm; for inhibition at 5 ppm: dosage 5 ppm
[4] = tested on: pathogenic bacteria causing stem rot in sweet potatoes; assay: In vitro bactericidal activity, stem rot in sweet potatoes; type: cell-based, dikia; details: read-out: inhibitory rate; for inhibition at 1 ppm: dosage 1 ppm; for inhibition at 5 ppm: dosage 5 ppm
[5] = tested on: pathogenic bacteria causing bacterial blight in rice; assay: whole plant or invertebrate; type: cell-based, xanthomonas; details: read-out: inhibitory rate
[6] = tested on: pathogenic bacteria causing fruit blotch in watermelons; assay: In vitro bactericidal activity, fruit blotch in watermelons; type: cell-based, acidovorax; details: read-out: inhibitory rate; for inhibition at 1 ppm: dosage 1 ppm; for inhibition at 5 ppm: dosage 5 ppm
[7] = tested on: pathogenic bacteria causing black rot in Chinese cabbages; assay: In vitro bactericidal activity, black rot in Chinese cabbages; type: cell-based, xanthomonas; details: Xanthomonas, read-out: inhibitory rate; for inhibition at 1 ppm: dosage 1 ppm; for inhibition at 5 ppm: dosage 5 ppm
[8] = tested on: pathogenic bacteria causing bacterial wilt in cassava; assay: organism not typed; type: cell-based; details: read-out: inhibitory rate
[9] = tested on: pathogenic bacteria causing fire blight in pears; assay: In vitro bactericidal activity, fire blight in pears; type: cell-based, erwinia; details: Erwinia, read-out: inhibitory rate; for inhibition at 1 ppm: dosage 1 ppm; for inhibition at 5 ppm: dosage 5 ppm
black shank in potatoes = assay: Living crops in vivo protective activity, potatoes (root irrigation); details: Solanum tuberosum, read-out: efficacy against black shank in potatoes; for pest or weed control at 5 ppm: dosage 5 ppm; for pest or weed control at 10 ppm: dosage 10 ppm
Method: Root irrigation was carried out on the potatoes for tests according to the designed concentration of the agents. The dosage for each plant was 200 mL and was kept consistent (also for the control). The black shank bacteria were inoculated on the second day after the application. The results were investigated according to the disease condition.

[10] = tested on: indoor potted cucumber seedlings; assay: Effect of improving growth and development of crops; type: in vivo; design: Rate of growth rate increase (%): concentration or dose not given beside the values; details: versus blank control; for Rate of chlorophyll content increase (%) / Rate of leaf area increase (%): 14 days after application; for Rate of growth rate increase (%): plant height 14 days after application; for Rate of leaf area increase (%): second leaf
Method: Taking indoor potted cucumber seedlings as an example, the influence of the compound disclosed herein on growth rate of plant height, chlorophyll content, leaf area, etc. of crops was mainly evaluated.
The plant heights of plants before application and 14 days after the application were measured.
The growth rates were calculated according to formula (1)
The rates of the growth rate increase (%) were calculated according to formula (2)
The longitudinal and transverse diameters (i.e., leaf length and leaf width, respectively, wherein the leaf length is the distance from the base to the tip of a leaf, and leaf width is the measured value of the upper shoulder width of the leaf) of the second leaf of plants before application and 14 days after the application were measured.
The leaf areas were calculated according to formula (3)
The leaf area increases were calculated according to formula (4)
The rates of the leaf area increases were calculated according to formula (5)
The chlorophyll contents of leaves were measured by using a chlorophyll measuring instrument (model: SPAD-520 Plus).
The chlorophyll content increases were calculated according to formula (6)
The rates of the chlorophyll content increases were calculated according to formula (7)

cucumber seedlings = assay: Safety for plant growth after application; type: in vivo; details: dosage 200 ppm
In short: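 Indoor potted cucumber seedlings were treated with the compounds, and crop safety was judged from effects on plant height growth rate, chlorophyll content and leaf area.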

[11] = tested on: bacterial wilt in tobacco; assay: whole plant or invertebrate; details: Nicotiana tabacum, read-out: efficacy against bacterial wilt in tobacco
[12] = tested on: stem rot in sweet potatoes; assay: whole plant or invertebrate; details: read-out: efficacy against stem rot in sweet potatoes
bacterial blight in rice = assay: whole plant or invertebrate; details: Oryza sativa, read-out: efficacy against bacterial blight in rice
[13] = tested on: fruit blotch in watermelons; assay: whole plant or invertebrate; details: read-out: efficacy against fruit blotch in watermelons
[14] = tested on: soft rot in Chinese cabbages; assay: whole plant or invertebrate; details: 48 h, read-out: efficacy against soft rot in Chinese cabbages

| SMILES | inhibition at 1 ppm [1] | inhibition at 5 ppm [1] | inhibition at 5 ppm [2] | inhibition at 5 ppm [3] | inhibition at 5 ppm [4] | inhibition at 5 ppm [5] | inhibition at 5 ppm [6] | inhibition at 5 ppm [7] | inhibition at 5 ppm [8] | inhibition at 5 ppm [9] | pest or weed control at 10 ppm (black shank in potatoes) | safety for plant growth (discoloration, necrosis, wilt, malformation) (cucumber seedlings) | pest or weed control at 5 ppm [11] | pest or weed control at 10 ppm [11] | pest or weed control at 5 ppm [12] | pest or weed control at 10 ppm [12] | pest or weed control at 10 ppm (bacterial blight in rice) | pest or weed control at 5 ppm [13] | pest or weed control at 10 ppm [13] | pest or weed control at 10 ppm [14] | also measured |
| --- | --- | --- | --- | --- | --- | --- | --- | --- | --- | --- | --- | --- | --- | --- | --- | --- | --- | --- | --- | --- | --- |
| CCOCCOC(=O)c1cn(C2CC2)c2cc(OC)c(F)cc2c1=O [Compound 326] | ≥ 90% | ≥ 90% | ≥ 90% | ≥ 90% | ≥ 90% | ≥ 90% | ≥ 90% | ≥ 90% | ≥ 90% | ≥ 90% | ≥ 90% | safe for plant growth | ≥ 90% | ≥ 90% | ≥ 90% | ≥ 90% | ≥ 90% | ≥ 90% | ≥ 90% | ≥ 90% | inhibition at 1 ppm [2]: ≥ 90%; inhibition at 1 ppm [3]: ≥ 90%; inhibition at 1 ppm [4]: ≥ 90%; inhibition at 1 ppm [5]: ≥ 90%; inhibition at 1 ppm [6]: ≥ 90%; inhibition at 1 ppm [7]: ≥ 90%; inhibition at 1 ppm [8]: ≥ 90%; inhibition at 1 ppm [9]: ≥ 90%; pest or weed control at 5 ppm (black shank in potatoes): ≥ 90%; Rate of chlorophyll content increase (%) [10]: 15%; Rate of growth rate increase (%) [10]: 13%; Rate of leaf area increase (%) [10]: 15%; pest or weed control at 5 ppm (bacterial blight in rice): ≥ 90%; pest or weed control at 5 ppm [14]: ≥ 90% |
| CCOc1cc2c(cc1F)c(=O)c(C(=O)OCCOC1CCCC1)cn2C1CC1 [Compound 307] | ≥ 90% | ≥ 90% | ≥ 90% | ≥ 90% | ≥ 90% | ≥ 90% | ≥ 90% | ≥ 90% | ≥ 90% | ≥ 90% | ≥ 90% | safe for plant growth | ≥ 90% | ≥ 90% | ≥ 90% | ≥ 90% | ≥ 90% | ≥ 90% | ≥ 90% | ≥ 90% | inhibition at 1 ppm [2]: ≥ 90%; inhibition at 1 ppm [3]: ≥ 90%; inhibition at 1 ppm [4]: ≥ 90%; inhibition at 1 ppm [5]: ≥ 90%; inhibition at 1 ppm [6]: ≥ 90%; inhibition at 1 ppm [7]: ≥ 90%; inhibition at 1 ppm [8]: ≥ 90%; inhibition at 1 ppm [9]: ≥ 90%; pest or weed control at 5 ppm (black shank in potatoes): ≥ 90%; Rate of chlorophyll content increase (%) [10]: 11%; Rate of growth rate increase (%) [10]: 9%; Rate of leaf area increase (%) [10]: 12%; pest or weed control at 5 ppm (bacterial blight in rice): ≥ 90%; pest or weed control at 5 ppm [14]: ≥ 90% |
| CNc1cc2c(cc1F)c(=O)c(C(=O)OCCO)cn2C1CC1 [Compound 400] | ≥ 90% | ≥ 90% | ≥ 90% | ≥ 90% | ≥ 90% | ≥ 90% | ≥ 90% | ≥ 90% | ≥ 90% | ≥ 90% | ≥ 90% | safe for plant growth | ≥ 90% | ≥ 90% | ≥ 90% | ≥ 90% | ≥ 90% | ≥ 90% | ≥ 90% | ≥ 90% | inhibition at 1 ppm [2]: ≥ 90%; inhibition at 1 ppm [3]: ≥ 90%; inhibition at 1 ppm [4]: ≥ 90%; inhibition at 1 ppm [5]: ≥ 90%; inhibition at 1 ppm [6]: ≥ 90%; inhibition at 1 ppm [7]: ≥ 90%; inhibition at 1 ppm [8]: ≥ 90%; inhibition at 1 ppm [9]: ≥ 90%; pest or weed control at 5 ppm (black shank in potatoes): ≥ 90%; Rate of chlorophyll content increase (%) [10]: 17%; Rate of growth rate increase (%) [10]: 13%; Rate of leaf area increase (%) [10]: 18%; pest or weed control at 5 ppm (bacterial blight in rice): ≥ 90%; pest or weed control at 5 ppm [14]: ≥ 90% |
| CCOCOC(=O)c1cn(C2CC2)c2ccc(F)cc2c1=O [Compound 2] | – | ≥ 90% | ≥ 90% | ≥ 90% | ≥ 90% | ≥ 90% | ≥ 90% | ≥ 90% | ≥ 90% | ≥ 90% | ≥ 90% | safe for plant growth | ≥ 90% | ≥ 90% | ≥ 90% | ≥ 90% | ≥ 90% | ≥ 90% | ≥ 90% | ≥ 90% | – |
